Measurements taken from patent US20250221998A1, “DISCOVERY OF COVALENT EGFR INHIBITOR THROUGH CYSTEINE 775” (Dana-Farber Cancer Institute, Inc., priority 2022, published 2025).

Legend:
[1] = biological target: EGFR L858R/C797S Ba/F3 cells (Homo sapiens, UniProt P00533, C797S/L858R, cells depend on it); test: Ba/F3 cell proliferation (Cell Titer Glo), EGFR L858R/C797S; type: cell-based, murine; details: 72 hours exposure, read-out: L858R/C797S (μM), inhibitory activity against EGFR mutants
Text: (§1) The EGFR mutant L858R Ba/F3 cells have been previously described (Zhou, W., et al. Nature 462, 2009, 1070-1074). The EGFR C797S and C775S mutations were introduced via site directed mutagenesis using the Quick Change Site-Directed Mutagenesis kit into a vector containing EGFR L858R mutation (Stratagene; La Jolla, CA) according to the manufacturer's instructions. All constructs were confirmed by DNA sequencing. The constructs were then shuttled into the retroviral vector JP1540 by either using the Cre-recombination system (Agilent Technologies, Santa Clara, CA) or the In-fusion HD Cloning kit (Takara Bio USA, Inc.; Mountain view, CA). Ba/F3 cells were then infected with retrovirus per standard protocols, as described previously (Zhou, et al, Nature 2009). Stable clones were obtained by selection in puromycin (2 ug/ml). All BaF/3 mutant cells were maintained in RPMI 1640 (Cellgro; Mediatech Inc., Herndon, CA) supplemented with 10% FBS, 100 units/mL penicillin, 100 units/mL streptomycin.
(§2) Growth and inhibition of growth was assessed by the Cell Titer Glo assay (Promega, Madison, WI) and was performed according to the manufacturer's instructions. The Cell Titer Glo assay is a luminescence-based method used to determine the number of viable cells based on quantitation of the ATP present, which is directly proportional to the amount of metabolically active cells present. Ba/F3 cells of different EGFR genotypes were exposed to compounds for 72 hours and the number of cells used per experiment was determined empirically as has been previously established (Zhou, et al., Nature 2009). All experimental points were set up in triplicates in 384-well plates. […] The curves were fitted using a non-linear regression model with a sigmoidal dose response.
(§3) For inhibitory activity against EGFR mutants, the following designations are used: ≤0·25 μM=A, 0·25 μM˜0.5 μM=B, 0.5 μM˜2.5 μM=C, ≥2.5 μM=D.

[2] = biological target: EGFR mutant L858R Ba/F3 cells (Homo sapiens, UniProt P00533, L858R, cells depend on it); test: Ba/F3 cell proliferation (Cell Titer Glo), EGFR L858R; type: cell-based, murine; details: 72 hours exposure, read-out: L858R BaF3 (μM), inhibitory activity against EGFR mutants
Text: as §1, §2, §3

Sequence of EGFR mutant L858R Ba/F3 cells (P00533 whole entry L858R): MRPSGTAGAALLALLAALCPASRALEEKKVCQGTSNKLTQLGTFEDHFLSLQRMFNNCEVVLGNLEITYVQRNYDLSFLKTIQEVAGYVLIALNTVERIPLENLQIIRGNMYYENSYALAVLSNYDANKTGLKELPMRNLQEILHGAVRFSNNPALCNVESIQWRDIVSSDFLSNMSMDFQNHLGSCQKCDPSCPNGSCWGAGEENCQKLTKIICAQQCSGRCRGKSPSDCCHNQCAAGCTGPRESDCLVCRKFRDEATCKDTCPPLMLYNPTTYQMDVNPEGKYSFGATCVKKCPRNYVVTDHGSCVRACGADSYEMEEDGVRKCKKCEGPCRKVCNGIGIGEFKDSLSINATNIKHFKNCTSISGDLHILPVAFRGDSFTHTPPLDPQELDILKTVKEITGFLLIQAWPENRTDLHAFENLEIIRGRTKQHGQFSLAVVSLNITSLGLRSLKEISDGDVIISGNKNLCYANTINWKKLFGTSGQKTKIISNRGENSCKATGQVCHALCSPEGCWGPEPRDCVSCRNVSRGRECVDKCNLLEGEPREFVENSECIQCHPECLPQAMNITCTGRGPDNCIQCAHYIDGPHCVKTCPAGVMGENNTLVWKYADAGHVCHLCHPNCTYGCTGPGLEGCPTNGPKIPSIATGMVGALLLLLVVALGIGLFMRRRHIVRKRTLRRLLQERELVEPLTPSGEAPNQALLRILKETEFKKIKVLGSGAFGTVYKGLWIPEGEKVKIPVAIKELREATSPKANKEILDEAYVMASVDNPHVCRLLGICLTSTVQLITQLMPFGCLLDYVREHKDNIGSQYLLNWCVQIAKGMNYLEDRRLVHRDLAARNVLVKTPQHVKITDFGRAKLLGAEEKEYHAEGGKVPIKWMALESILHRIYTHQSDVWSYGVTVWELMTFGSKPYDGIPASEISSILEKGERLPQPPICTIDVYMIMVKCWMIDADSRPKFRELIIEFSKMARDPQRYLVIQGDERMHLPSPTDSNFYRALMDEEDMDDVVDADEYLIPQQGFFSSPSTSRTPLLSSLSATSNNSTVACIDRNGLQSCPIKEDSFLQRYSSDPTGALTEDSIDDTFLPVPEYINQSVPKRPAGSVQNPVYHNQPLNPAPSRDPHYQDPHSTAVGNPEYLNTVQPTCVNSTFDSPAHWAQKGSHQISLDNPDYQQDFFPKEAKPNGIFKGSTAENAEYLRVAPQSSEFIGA
Sequence of EGFR L858R/C797S Ba/F3 cells (P00533 whole entry C797S/L858R, the tested form may be a part): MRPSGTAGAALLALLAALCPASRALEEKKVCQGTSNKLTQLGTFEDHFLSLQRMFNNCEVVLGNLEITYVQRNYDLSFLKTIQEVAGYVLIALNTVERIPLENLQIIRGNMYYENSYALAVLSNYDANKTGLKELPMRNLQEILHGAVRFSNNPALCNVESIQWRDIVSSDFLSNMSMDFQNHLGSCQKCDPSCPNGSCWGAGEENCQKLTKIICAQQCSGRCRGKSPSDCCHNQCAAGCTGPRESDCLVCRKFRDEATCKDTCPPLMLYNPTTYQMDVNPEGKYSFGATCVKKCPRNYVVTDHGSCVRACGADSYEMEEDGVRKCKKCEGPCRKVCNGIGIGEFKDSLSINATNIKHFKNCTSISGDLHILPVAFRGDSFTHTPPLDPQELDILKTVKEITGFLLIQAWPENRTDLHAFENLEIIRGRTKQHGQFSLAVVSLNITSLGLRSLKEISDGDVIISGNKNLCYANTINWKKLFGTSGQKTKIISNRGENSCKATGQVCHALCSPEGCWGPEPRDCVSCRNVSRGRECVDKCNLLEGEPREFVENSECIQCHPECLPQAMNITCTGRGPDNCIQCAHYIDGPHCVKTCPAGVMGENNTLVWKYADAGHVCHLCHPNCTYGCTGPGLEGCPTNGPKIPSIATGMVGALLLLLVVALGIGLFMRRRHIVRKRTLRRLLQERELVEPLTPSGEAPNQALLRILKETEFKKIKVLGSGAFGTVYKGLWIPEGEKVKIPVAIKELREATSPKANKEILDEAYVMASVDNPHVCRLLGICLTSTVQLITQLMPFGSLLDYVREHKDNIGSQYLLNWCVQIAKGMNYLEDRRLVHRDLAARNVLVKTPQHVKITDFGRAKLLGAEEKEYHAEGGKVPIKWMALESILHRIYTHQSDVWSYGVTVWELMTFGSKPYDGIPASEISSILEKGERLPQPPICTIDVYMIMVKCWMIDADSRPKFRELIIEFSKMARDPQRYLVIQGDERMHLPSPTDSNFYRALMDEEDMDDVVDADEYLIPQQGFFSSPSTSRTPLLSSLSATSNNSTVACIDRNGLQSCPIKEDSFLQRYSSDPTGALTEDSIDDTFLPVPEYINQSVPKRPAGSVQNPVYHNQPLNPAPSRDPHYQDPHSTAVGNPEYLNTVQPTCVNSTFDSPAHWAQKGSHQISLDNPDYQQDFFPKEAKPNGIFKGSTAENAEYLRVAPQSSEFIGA

GI50 [1] [µM] | GI50 [2] [µM] | SMILES
≤ 0.25 | ≤ 0.25 | C=CC(=O)N1CCN(c2c(F)c3cnc(Nc4ccc(N5CCN(C)CC5)cc4)nc3n(C)c2=O)c2cccc(C)c21 [Compound 054, 5-fluoro-8-methyl-2-[4-(4-methylpiperazin-1-yl)anilino]-6-(5-methyl-4-prop-2-enoyl-2,3-dihydroquinoxalin-1-yl)pyrido[2,3-d]pyrimidin-7-one]
≤ 0.25 | ≤ 0.25 | C=CC(=O)N1CCN(c2cc3cnc(Nc4cc5c(cc4F)CCN(C)C5)nc3n(C)c2=O)c2cccc(C)c21 [Compound 061, 2-[(6-fluoro-2-methyl-3,4-dihydro-1H-isoquinolin-7-yl)amino]-8-methyl-6-(5-methyl-4-prop-2-enoyl-2,3-dihydroquinoxalin-1-yl)pyrido[2,3-d]pyrimidin-7-one]
≥ 2.5 | ≥ 2.5 | C=C(F)C(=O)NC1CCN(c2cc3cnc(Nc4cnn(CCO)c4)nc3n(C)c2=O)CC1 [Compound 018]
≤ 0.25 | ≤ 0.25 | C=CC(=O)N1CCN(c2cc3cnc(Nc4ccc(N5CCN(C)CC5)cc4)nc3n(C)c2=O)c2cccc(O)c21 [Compound 051, 6-(5-hydroxy-4-prop-2-enoyl-2,3-dihydroquinoxalin-1-yl)-8-methyl-2-[4-(4-methylpiperazin-1-yl)anilino]pyrido[2,3-d]pyrimidin-7-one]
≤ 0.25 | ≤ 0.25 | C=CC(=O)N1CCN(c2cc3cnc(Nc4ccc(OCCN(C)C)cc4)nc3n(CCO)c2=O)c2cccc(C)c21 [Compound 047, 2-[4-[2-(dimethylamino)ethoxy]anilino]-8-(2-hydroxyethyl)-6-(5-methyl-4-prop-2-enoyl-2,3-dihydroquinoxalin-1-yl)pyrido[2,3-d]pyrimidin-7-one]
≤ 0.25 | ≤ 0.25 | C=CC(=O)N1CCN(c2cc3cnc(Nc4cnn(C5CCN(C)CC5)c4)nc3n(C)c2=O)c2cccc(C)c21 [Compound 039, 8-methyl-2-[[1-(1-methyl-4-piperidyl)pyrazol-4-yl]amino]-6-(5-methyl-4-prop-2-enoyl-2,3-dihydroquinoxalin-1-yl)pyrido[2,3-d]pyrimidin-7-one]
≤ 0.25 | ≤ 0.25 | C=CC(=O)N1CCN(c2c(F)c3cnc(Nc4ccc(N5CCN(C)CC5)cc4)nc3n(C)c2=O)c2c(F)cc(F)c(C)c21 [Compound 059, 6-(6,8-difluoro-5-methyl-4-prop-2-enoyl-2,3-dihydroquinoxalin-1-yl)-5-fluoro-8-methyl-2-[4-(4-methylpiperazin-1-yl)anilino]pyrido[2,3-d]pyrimidin-7-one]
≤ 0.25 | ≤ 0.25 | C=CC(=O)N1CCN(c2cc3cnc(Nc4ccc(N5CCN(C)CC5)cc4)nc3n(C3CC(O)C3)c2=O)c2cccc(C)c21 (stereo not shown) [Compound 046, 8-(3-hydroxycyclobutyl)-2-[4-(4-methylpiperazin-1-yl)anilino]-6-(5-methyl-4-prop-2-enoyl-2,3-dihydroquinoxalin-1-yl)pyrido[2,3-d]pyrimidin-7-one]
≤ 0.25 | ≤ 0.25 | C=CC(=O)N1CCN(c2cc3cnc(Nc4ccc(OCCN(C)C)cc4)nc3n(-c3cccnc3)c2=O)c2cccc(C)c21 [Compound 067]
≤ 0.25 | ≤ 0.25 | C=CC(=O)N1CCN(c2cc3cnc(N)nc3n(-c3ccc(N(C)CCOC)cc3)c2=O)c2cccc(C)c21 [Compound 099, 2-amino-8-[4-[2-methoxyethyl(methyl)amino]phenyl]-6-(5-methyl-4-prop-2-enoyl-2,3-dihydroquinoxalin-1-yl)pyrido[2,3-d]pyrimidin-7-one]
0.5 to 2.5 | 0.5 to 2.5 | C=CC(=O)N1CCN(c2cc3cnc(NC4CC4)nc3n(C)c2=O)c2cccc(C)c21 [Compound 083, 2-(cyclopropylamino)-8-methyl-6-(5-methyl-4-prop-2-enoyl-2,3-dihydroquinoxalin-1-yl)pyrido[2,3-d]pyrimidin-7-one]
≤ 0.25 | ≤ 0.25 | C=CC(=O)N1CCN(c2cc3cnc(Nc4ccc(OCCN(C)C)cc4)nc3n(C3CC(O)C3)c2=O)c2cccc(C)c21 (stereo not shown) [Compound 042, 2-[4-[2-(dimethylamino)ethoxy]anilino]-8-(3-hydroxycyclobutyl)-6-(5-methyl-4-prop-2-enoyl-2,3-dihydroquinoxalin-1-yl)pyrido[2,3-d]pyrimidin-7-one]
≤ 0.25 | ≤ 0.25 | C=CC(=O)N1CCN(c2cc3cnc(Nc4ccc(CN5CCN(C)CC5)cc4)nc3n(C)c2=O)c2cccc(C)c21 [Compound 050]
0.25 to 0.5 | ≤ 0.25 | C=CC(=O)N1CCN(c2cc3cnc(Nc4ccc(CS(=O)(=O)NC)cc4)nc3n(C)c2=O)c2cccc(O)c21 [Compound 053]
0.5 to 2.5 | 0.25 to 0.5 | C=CC(=O)N1CCN(c2cc3cnc(N)nc3n(-c3cccc(O)c3)c2=O)c2cccc(C)c21 [Compound 098, 2-amino-8-(3-hydroxyphenyl)-6-(5-methyl-4-prop-2-enoyl-2,3-dihydroquinoxalin-1-yl)pyrido[2,3-d]pyrimidin-7-one]
≤ 0.25 | ≤ 0.25 | C=CC(=O)N1CCN(c2cc3cnc(N)nc3n(-c3ccc(N4CCOCC4)cc3)c2=O)c2cccc(C)c21 [Compound 089, 2-amino-6-(5-methyl-4-prop-2-enoyl-2,3-dihydroquinoxalin-1-yl)-8-(4-morpholinophenyl)pyrido[2,3-d]pyrimidin-7-one]
≤ 0.25 | ≤ 0.25 | C=CC(=O)N1CCC(c2cc3cnc(Nc4cnn(CCO)c4)nc3n(C)c2=O)c2ccccc21 (stereo not shown) [Compound 017, 2-[[1-(2-hydroxyethyl)pyrazol-4-yl]amino]-8-methyl-6-(1-prop-2-enoyl-3,4-dihydro-2H-quinolin-4-yl)pyrido[2,3-d]pyrimidin-7-one]
0.5 to 2.5 | 0.25 to 0.5 | C=CC(=O)N1CCN(c2cc3cnc(Nc4cc(OC)ncc4C)nc3n(C)c2=O)c2cccc(C)c21 [Compound 063]
≤ 0.25 | ≤ 0.25 | C=CC(=O)N1CCN(c2cc3cnc(Nc4ccc(OCCN5CCCC5)cc4)nc3n(C)c2=O)c2cccc(C)c21 [Compound 032]
≤ 0.25 | ≤ 0.25 | C=CC(=O)N1CCN(c2cc3cnc(NC4CC4)nc3n(-c3ccc(OCCN(C)C)cc3)c2=O)c2cccc(C)c21 [Compound 082, 2-(cyclopropylamino)-8-[4-[2-(dimethylamino)ethoxy]phenyl]-6-(5-methyl-4-prop-2-enoyl-2,3-dihydroquinoxalin-1-yl)pyrido[2,3-d]pyrimidin-7-one]
≤ 0.25 | ≤ 0.25 | C=C(F)C(=O)N1CCC(c2cc3cnc(Nc4cnn(CCO)c4)nc3n(C)c2=O)c2ccccc21 (stereo not shown) [Compound 014, 6-[1-(2-fluoroprop-2-enoyl)-3,4-dihydro-2H-quinolin-4-yl]-2-[[1-(2-hydroxyethyl)pyrazol-4-yl]amino]-8-methyl-pyrido[2,3-d]pyrimidin-7-one]
≤ 0.25 | ≤ 0.25 | C=CC(=O)N1CCN(c2cc3cnc(Nc4ccccc4)nc3n(C3CC(OC)C3)c2=O)c2cccc(C)c21 (stereo not shown) [Compound 084, 2-anilino-8-(3-methoxycyclobutyl)-6-(5-methyl-4-prop-2-enoyl-2,3-dihydroquinoxalin-1-yl)pyrido[2,3-d]pyrimidin-7-one]
≤ 0.25 | ≤ 0.25 | C=CC(=O)N1CCN(c2cc3cnc(Nc4ccc(OCCN(C)C)cc4)nc3n(CC(C)(C)O)c2=O)c2cccc(C)c21 [Compound 058, 2-[4-[2-(dimethylamino)ethoxy]anilino]-8-(2-hydroxy-2-methyl-propyl)-6-(5-methyl-4-prop-2-enoyl-2,3-dihydroquinoxalin-1-yl)pyrido[2,3-d]pyrimidin-7-one]
≤ 0.25 | ≤ 0.25 | C=CC(=O)N1CCN(c2cc3cnc(Nc4ccc(N5CCN(C)CC5)cc4)nc3n(-c3cccnc3)c2=O)c2cccc(C)c21 [Compound 052, 2-[4-(4-methylpiperazin-1-yl)anilino]-6-(5-methyl-4-prop-2-enoyl-2,3-dihydroquinoxalin-1-yl)-8-(3-pyridyl)pyrido[2,3-d]pyrimidin-7-one]
≤ 0.25 | ≤ 0.25 | C=CC(=O)N1CCN(c2cc3cnc(NC4CC4)nc3n(C3CCOC3)c2=O)c2cccc(C)c21 (stereo not shown) [Compound 096, 2-(cyclopropylamino)-6-(5-methyl-4-prop-2-enoyl-2,3-dihydroquinoxalin-1-yl)-8-tetrahydrofuran-3-yl-pyrido[2,3-d]pyrimidin-7-one]
≥ 2.5 | ≥ 2.5 | C=CC(=O)N1CCN(c2cc3cnc(Nc4ccc(N5CCN(C)CC5)cc4)nc3n(C)c2=O)C2(CC2)C1 [Compound 012, 8-methyl-2-[4-(4-methylpiperazin-1-yl)anilino]-6-(7-prop-2-enoyl-4,7-diazaspiro[2.5]octan-4-yl)pyrido[2,3-d]pyrimidin-7-one]
